Data: the Kinase Knowledgebase extract (Sharma et al. 2016)

Assays:
[1] = test system: EGFR (Human), P00533 [T790M/L858R]; conditions: nci-h1975
[2] = test system: EGFR (Human), P00533 [Assessment of Proliferation in EGFR DelE746_A750 Mutant Expressing HCC827 Cells]
Sequence of EGFR (Human), P00533 [Assessment of Proliferation in EGFR DelE746_A750 Mutant Expressing HCC827 Cells] (P00533 whole entry, looked up, stated change not applied): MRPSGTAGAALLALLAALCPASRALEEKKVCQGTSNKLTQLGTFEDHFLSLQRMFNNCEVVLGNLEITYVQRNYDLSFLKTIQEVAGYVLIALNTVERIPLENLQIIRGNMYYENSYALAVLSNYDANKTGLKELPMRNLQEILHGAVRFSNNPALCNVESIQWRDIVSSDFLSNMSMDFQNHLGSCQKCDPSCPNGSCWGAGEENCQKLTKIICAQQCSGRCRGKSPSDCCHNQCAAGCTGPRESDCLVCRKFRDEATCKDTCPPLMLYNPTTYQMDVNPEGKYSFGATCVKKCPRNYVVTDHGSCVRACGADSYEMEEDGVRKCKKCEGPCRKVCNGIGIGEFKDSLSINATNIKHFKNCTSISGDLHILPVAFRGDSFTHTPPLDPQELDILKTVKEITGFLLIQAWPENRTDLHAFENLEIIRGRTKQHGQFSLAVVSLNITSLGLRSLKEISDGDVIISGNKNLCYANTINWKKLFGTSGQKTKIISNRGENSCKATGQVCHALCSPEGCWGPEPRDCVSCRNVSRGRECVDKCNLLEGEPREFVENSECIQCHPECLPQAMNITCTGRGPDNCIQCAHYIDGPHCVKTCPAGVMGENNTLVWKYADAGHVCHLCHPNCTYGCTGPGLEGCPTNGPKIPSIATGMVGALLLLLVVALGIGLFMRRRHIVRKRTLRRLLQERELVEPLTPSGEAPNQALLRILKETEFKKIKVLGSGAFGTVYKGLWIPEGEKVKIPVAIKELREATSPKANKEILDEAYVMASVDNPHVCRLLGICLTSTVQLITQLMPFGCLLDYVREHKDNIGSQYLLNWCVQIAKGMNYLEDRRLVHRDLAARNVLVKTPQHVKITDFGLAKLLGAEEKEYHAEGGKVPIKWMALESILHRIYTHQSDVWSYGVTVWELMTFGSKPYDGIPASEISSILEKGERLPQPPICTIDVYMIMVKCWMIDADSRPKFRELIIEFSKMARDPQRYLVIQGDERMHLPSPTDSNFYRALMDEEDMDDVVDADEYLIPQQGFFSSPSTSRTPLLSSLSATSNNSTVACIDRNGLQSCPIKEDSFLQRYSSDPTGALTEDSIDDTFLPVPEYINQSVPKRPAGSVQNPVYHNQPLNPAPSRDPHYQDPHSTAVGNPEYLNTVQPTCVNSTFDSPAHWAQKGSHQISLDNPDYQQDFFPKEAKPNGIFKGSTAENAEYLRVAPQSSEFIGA

Sequence of EGFR (Human), P00533 [T790M/L858R] (P00533 whole entry T790M/L858R, looked up): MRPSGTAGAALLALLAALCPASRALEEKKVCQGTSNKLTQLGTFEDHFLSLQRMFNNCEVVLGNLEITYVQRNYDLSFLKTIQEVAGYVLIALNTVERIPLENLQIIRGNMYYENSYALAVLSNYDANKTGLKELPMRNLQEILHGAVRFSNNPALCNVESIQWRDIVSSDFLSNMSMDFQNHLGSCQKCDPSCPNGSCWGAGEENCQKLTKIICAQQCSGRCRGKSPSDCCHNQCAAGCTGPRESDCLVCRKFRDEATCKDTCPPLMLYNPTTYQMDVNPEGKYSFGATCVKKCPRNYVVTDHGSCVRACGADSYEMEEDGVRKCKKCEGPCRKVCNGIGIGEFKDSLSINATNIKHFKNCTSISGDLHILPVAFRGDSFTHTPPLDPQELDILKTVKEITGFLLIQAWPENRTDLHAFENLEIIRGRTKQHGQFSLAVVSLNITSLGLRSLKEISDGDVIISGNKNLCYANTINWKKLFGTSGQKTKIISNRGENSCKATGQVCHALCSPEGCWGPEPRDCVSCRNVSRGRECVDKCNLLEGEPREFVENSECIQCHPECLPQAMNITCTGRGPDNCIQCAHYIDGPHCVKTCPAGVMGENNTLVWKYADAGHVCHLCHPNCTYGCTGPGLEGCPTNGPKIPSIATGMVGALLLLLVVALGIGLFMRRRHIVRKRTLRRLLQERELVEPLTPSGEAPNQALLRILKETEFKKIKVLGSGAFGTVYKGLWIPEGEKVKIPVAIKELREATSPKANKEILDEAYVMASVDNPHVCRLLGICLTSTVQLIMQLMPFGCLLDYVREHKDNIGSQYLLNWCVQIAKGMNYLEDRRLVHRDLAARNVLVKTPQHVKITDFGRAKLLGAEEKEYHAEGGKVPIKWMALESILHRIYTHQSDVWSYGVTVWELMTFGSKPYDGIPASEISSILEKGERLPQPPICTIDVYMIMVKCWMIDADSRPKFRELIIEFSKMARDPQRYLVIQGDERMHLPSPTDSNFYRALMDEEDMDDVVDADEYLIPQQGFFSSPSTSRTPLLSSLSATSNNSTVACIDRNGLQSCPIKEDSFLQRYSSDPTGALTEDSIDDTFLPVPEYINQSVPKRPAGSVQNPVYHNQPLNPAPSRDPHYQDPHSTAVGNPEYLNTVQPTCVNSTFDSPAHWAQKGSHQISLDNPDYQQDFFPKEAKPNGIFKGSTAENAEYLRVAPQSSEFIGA

Compound	GI50 [1]	GI50 [2]
C=CC(=O)Nc1cccc(Oc2nc(Nc3ccc(OCCN(CC)CC)c(F)c3)nc3ccsc23)c1	≤ 0.05 µM	≤ 0.05 µM
C=CC(=O)Nc1cccc(Oc2nc(Nc3ccc(C4(N)CC4)cc3)nc3ccsc23)c1	≤ 0.05 µM	≤ 0.05 µM
C=CC(=O)Nc1cccc(Oc2nc(Nc3ccc(N4CCS(=O)(=O)CC4)cc3)nc3ccsc23)c1	≤ 0.05 µM	≤ 0.05 µM
C=CC(=O)Nc1cccc(Oc2nc(Nc3ccc(N4CCN(C)CC4)cc3OC)nc3ccsc23)c1	0.05 to 0.1 µM	0.05 to 0.1 µM
C=CC(=O)Nc1cccc(Oc2nc(Nc3ccc(CCN4CCN(S(C)(=O)=O)CC4)cc3)nc3ccsc23)c1	≤ 0.05 µM	≤ 0.05 µM
C=CC(=O)Nc1cccc(Oc2nc(Nc3ccc(CN4CCCC4)cc3)nc3ccsc23)c1	≤ 0.05 µM	≤ 0.05 µM
C=CC(=O)Nc1cccc(Nc2nc(Nc3ccc(N4CCN(C(C)C)CC4)cc3)nc3ccsc23)c1	≤ 0.05 µM	≤ 0.05 µM
C=CC(=O)Nc1cccc(Oc2nc(Nc3ccc(CCN4CCN(CC)CC4)cc3)nc3ccsc23)c1	≤ 0.05 µM	0.05 to 0.1 µM
C=CC(=O)Nc1cccc(Oc2nc(Nc3ccc(N4CCN(C5CCN(C)CC5)CC4)cc3)nc3ccsc23)c1	≤ 0.05 µM	≤ 0.05 µM
C=CC(=O)Nc1cccc(Oc2nc(Nc3ccc4c(c3)CCCC(=O)N4C)nc3ccsc23)c1	0.05 to 0.1 µM	0.05 to 0.1 µM
C=CC(=O)Nc1cccc(Nc2nc(Nc3ccc(N4CCN(CC)CC4)cc3)nc3ccsc23)c1	≤ 0.05 µM	≤ 0.05 µM
C=CC(=O)Nc1cccc(Oc2nc(Nc3ccc(N4CC[S+]([O-])CC4)cc3)nc3ccsc23)c1	≤ 0.05 µM	≤ 0.05 µM
C=CC(=O)Nc1cccc(Oc2nc(Nc3ccc(CN4CCCCC4)cc3)nc3ccsc23)c1	≤ 0.05 µM	≤ 0.05 µM
C=CC(=O)Nc1cccc(Oc2nc(Nc3ccc(N4CCN(C)CC4)nc3)nc3ccsc23)c1	≤ 0.05 µM	≤ 0.05 µM
C=CC(=O)Nc1cccc(Oc2nc(Nc3ccc(C(=O)N(C)C)cc3)nc3ccsc23)c1	0.05 to 0.1 µM	0.05 to 0.1 µM
C=CC(=O)Nc1cccc(Nc2nc(Nc3ccc(NC4CCN(C)CC4)c(F)c3)nc3ccsc23)c1	0.05 to 0.1 µM	≤ 0.05 µM
C=CC(=O)Nc1cccc(Oc2nc(Nc3ccc(OCCOC)c(F)c3)nc3ccsc23)c1	≤ 0.05 µM	0.05 to 0.1 µM
C=CC(=O)Nc1cccc(Nc2nc(Nc3ccc(C4CCCN(C)C4)cc3)nc3ccsc23)c1 (centres undefined)	≤ 0.05 µM	≤ 0.05 µM
C=CC(=O)Nc1cccc(Oc2nc(Nc3ccc(N4CCC(N5CCOCC5)CC4)c(F)c3)nc3ccsc23)c1	≤ 0.05 µM	≤ 0.05 µM
C=CC(=O)Nc1cccc(Nc2nc(Nc3ccc(C4CCN(C)CC4)cc3)nc3ccsc23)c1	≤ 0.05 µM	≤ 0.05 µM
C=CC(=O)Nc1cccc(Oc2nc(Nc3ccc(CCN(C)C)cc3)nc3ccsc23)c1	≤ 0.05 µM	≤ 0.05 µM
C=CC(=O)Nc1cccc(Oc2nc(Nc3ccc(N4CCN(C)CC4)c(F)c3)nc3ccsc23)c1	≤ 0.05 µM	≤ 0.05 µM
C=CC(=O)Nc1cccc(Oc2nc(Nc3ccc(C4CCCN(C)C4)cc3OC)nc3ccsc23)c1 (centres undefined)	≤ 0.05 µM	≤ 0.05 µM
C=CC(=O)Nc1cccc(Oc2nc(Nc3ccc(N4CCC(N(C)C)CC4)cc3)nc3ccsc23)c1	≤ 0.05 µM	≤ 0.05 µM

Compound	GI50 [1]	GI50 [2]
C=CC(=O)Nc1cccc(Oc2nc(Nc3ccc(C4CCN(C)CC4)c(Cl)c3)nc3ccsc23)c1	0.05 to 0.1 µM	0.05 to 0.1 µM
C=CC(=O)Nc1cccc(Oc2nc(Nc3ccc(CN4CCC(N(C)C)CC4)c(F)c3)nc3ccsc23)c1	0.05 to 0.1 µM	≤ 0.05 µM
C=CC(=O)Nc1cccc(Oc2nc(Nc3ccc(N4CCOCC4)cc3)nc3ccsc23)c1	≤ 0.05 µM	0.05 to 0.1 µM
C=CC(=O)Nc1cccc(Nc2nc(Nc3ccc(OCCN(C)C)cc3)nc3ccsc23)c1	≤ 0.05 µM	≤ 0.05 µM
C=CC(=O)Nc1cccc(Oc2nc(Nc3ccc(C=CCN4CCCCC4)cc3)nc3ccsc23)c1	0.05 to 0.1 µM	≤ 0.05 µM
C=CC(=O)Nc1cccc(Oc2nc(Nc3ccc(NC4CCN(C)CC4)c(F)c3)nc3ccsc23)c1	≤ 0.05 µM	≤ 0.05 µM
C=CC(=O)Nc1cccc(Oc2nc(Nc3ccc(-n4ccnc4)cc3)nc3ccsc23)c1	≤ 0.05 µM	0.05 to 0.1 µM
C=CC(=O)Nc1cccc(Oc2nc(Nc3ccc(C4CCN(C)CC4)c(F)c3)nc3ccoc23)c1	≤ 0.05 µM	≤ 0.05 µM
C=CC(=O)Nc1cccc(Oc2nc(Nc3ccc(N4CCN(CC)CC4)cn3)nc3ccsc23)c1	≤ 0.05 µM	≤ 0.05 µM
C=CC(=O)Nc1cccc(Oc2nc(Nc3ccc(N4CCN(C)CC4)cc3)nc3ccsc23)c1	≤ 0.05 µM	≤ 0.05 µM
C=CC(=O)Nc1cccc(Oc2nc(Nc3ccc(N4CCC(N5CCCC5)CC4)c(Cl)c3)nc3ccsc23)c1	≤ 0.05 µM	≤ 0.05 µM
C=CC(=O)Nc1cccc(Oc2nc(Nc3ccc4c(ccn4C)c3)nc3ccsc23)c1	≤ 0.05 µM	0.05 to 0.1 µM
C=CC(=O)Nc1cccc(Oc2nc(Nc3ccc(N4CCC(N5CCOCC5)CC4)cc3)nc3ccsc23)c1	≤ 0.05 µM	≤ 0.05 µM
C=CC(=O)Nc1cccc(Oc2nc(Nc3ccc(N4CCN(S(=O)(=O)CC)CC4)cc3)nc3ccsc23)c1	0.05 to 0.1 µM	≤ 0.05 µM
C=CC(=O)Nc1cccc(Oc2nc(Nc3ccc(OC4CCN(C)CC4)c(F)c3)nc3ccsc23)c1	≤ 0.05 µM	≤ 0.05 µM
C=CC(=O)Nc1cccc(Oc2nc(Nc3ccc(CN4CCN(C)CC4)c(F)c3)nc3ccsc23)c1	≤ 0.05 µM	≤ 0.05 µM
C=CC(=O)Nc1cccc(Oc2nc(Nc3ccc(NC4CCN(C(C)C)CC4)c(F)c3)nc3ccsc23)c1	≤ 0.05 µM	≤ 0.05 µM
C=CC(=O)Nc1cccc(Oc2nc(Nc3ccc(C4CCN(C(C)C)CC4)cc3)nc3ccsc23)c1	≤ 0.05 µM	≤ 0.05 µM
C=CC(=O)Nc1cccc(Oc2nc(Nc3ccc(N4CCN(C)CC4)cc3F)nc3ccsc23)c1	0.05 to 0.1 µM	0.05 to 0.1 µM
C=CC(=O)Nc1cccc(Oc2nc(Nc3ccc(C(=O)N4CCN(CC)CC4)cc3)nc3ccsc23)c1	≤ 0.05 µM	≤ 0.05 µM
C=CC(=O)Nc1cccc(Oc2nc(Nc3ccc(N4CCC(N5CCCCC5)CC4)c(F)c3)nc3ccsc23)c1	≤ 0.05 µM	≤ 0.05 µM
C=CC(=O)Nc1cccc(Oc2nc(Nc3ccc(C[S+](C)[O-])cc3)nc3ccsc23)c1 (centres undefined)	≤ 0.05 µM	≤ 0.05 µM
C=CC(=O)Nc1cccc(Oc2nc(Nc3ccc4c(c3)NCCCO4)nc3ccsc23)c1	≤ 0.05 µM	≤ 0.05 µM
C=CC(=O)Nc1cccc(Nc2nc(Nc3ccc(CN(C)C)cc3)nc3ccsc23)c1	≤ 0.05 µM	≤ 0.05 µM

Compound	GI50 [1]	GI50 [2]
C=CC(=O)Nc1cccc(Oc2nc(Nc3ccc(CN4CCC4)cc3)nc3ccsc23)c1	≤ 0.05 µM	≤ 0.05 µM
C=CC(=O)Nc1cccc(Oc2nc(Nc3ccc(CC(=O)NC4CCN(C)CC4)cc3)nc3ccsc23)c1	≤ 0.05 µM	0.1 to 1 µM
C=CC(=O)Nc1cccc(Oc2nc(Nc3ccc(CN(CC)CC)cc3)nc3ccsc23)c1	≤ 0.05 µM	≤ 0.05 µM
C=CC(=O)Nc1cccc(Nc2nc(Nc3ccc(C4CCN(C)CC4)c(F)c3)nc3ccsc23)c1	≤ 0.05 µM	≤ 0.05 µM
C=CC(=O)Nc1cccc(Oc2nc(Nc3ccc(OCCN4CCN(C)CC4)c(F)c3)nc3ccsc23)c1	≤ 0.05 µM	≤ 0.05 µM
C=CC(=O)Nc1cccc(Oc2nc(Nc3ccc(C(=O)NC4CCN(C)CC4)c(OC)c3)nc3ccsc23)c1	0.05 to 0.1 µM	≤ 0.05 µM
C=CC(=O)Nc1cccc(Oc2nc(Nc3ccc(N4CCC(N5CCOCC5)CC4)c(Cl)c3)nc3ccsc23)c1	≤ 0.05 µM	≤ 0.05 µM
C=CC(=O)Nc1cccc(Oc2nc(Nc3ccc(N4CCN(C(=O)CN(C)C)CC4)c(F)c3)nc3ccsc23)c1	≤ 0.05 µM	≤ 0.05 µM
C=CC(=O)Nc1cccc(Oc2nc(Nc3ccc(N4CCC(C(=O)N(C)C)CC4)cc3)nc3ccsc23)c1	≤ 0.05 µM	≤ 0.05 µM
C=CC(=O)Nc1cccc(Nc2nc(Nc3ccc(N4CCN(C)CC4)c(F)c3)nc3ccsc23)c1	≤ 0.05 µM	≤ 0.05 µM
C=CC(=O)Nc1cccc(Oc2nc(Nc3ccc(S(=O)(=O)N4CCN(CC)CC4)cc3)nc3ccsc23)c1	0.05 to 0.1 µM	≤ 0.05 µM
C=CC(=O)Nc1cccc(Oc2nc(Nc3ccc(N4CCC(N5CCN(CC)CC5)CC4)cc3)nc3ccsc23)c1	0.1 to 1 µM	≤ 0.05 µM
C=CC(=O)Nc1cccc(Oc2nc(Nc3ccc(C4CCCN(C)C4)c(F)c3)nc3ccsc23)c1 (centres undefined)	≤ 0.05 µM	≤ 0.05 µM
C=CC(=O)Nc1cccc(Oc2nc(Nc3ccc(CN4CCC(N(C)C)CC4)cc3)nc3ccoc23)c1	0.05 to 0.1 µM	0.05 to 0.1 µM
C=CC(=O)Nc1cccc(Oc2nc(Nc3ccc(C4CCN(C)CC4)cc3OC)nc3ccsc23)c1	≤ 0.05 µM	0.05 to 0.1 µM
C=CC(=O)Nc1cccc(Oc2nc(Nc3ccc4c(c3)CCN4C(=O)CN(C)C)nc3ccsc23)c1	≤ 0.05 µM	≤ 0.05 µM
C=CC(=O)Nc1cccc(Oc2nc(Nc3ccc(C4CCN(C)CC4)cc3)nc3ccsc23)c1	≤ 0.05 µM	≤ 0.05 µM
C=CC(=O)Nc1cccc(Oc2nc(Nc3ccc(N4CCN(S(C)(=O)=O)CC4)cc3)nc3ccsc23)c1	≤ 0.05 µM	0.05 to 0.1 µM
C=CC(=O)Nc1cccc(Oc2nc(Nc3ccc(CN4CCN(C)CC4)nc3)nc3ccsc23)c1	0.05 to 0.1 µM	≤ 0.05 µM
C=CC(=O)Nc1cccc(Oc2nc(Nc3ccc(CN4CCN(C)CC4)cc3)nc3ccsc23)c1	≤ 0.05 µM	≤ 0.05 µM
C=CC(=O)Nc1ccc(F)c(Oc2nc(Nc3ccc(N4CCN(C)CC4)cc3)nc3ccsc23)c1	≤ 0.05 µM	≤ 0.05 µM
C=CC(=O)Nc1cccc(Oc2nc(Nc3ccc(N4CCN(CCF)CC4)cc3)nc3ccsc23)c1	0.05 to 0.1 µM	≤ 0.05 µM
C=CC(=O)Nc1cccc(Oc2nc(Nc3ccc(N4CCSCC4)cc3)nc3ccsc23)c1	≤ 0.05 µM	0.1 to 1 µM
C=CC(=O)Nc1cccc(Oc2nc(Nc3ccc(OC4CCN(CC)CC4)cc3)nc3ccsc23)c1	≤ 0.05 µM	≤ 0.05 µM
